Source: patent publication US20110251286A1, “Crystalline salts and/or co-crystals of O-desmethyltramadol” (GRUENENTHAL GmbH, priority 2010, published 2011)

What was measured:
[1] = Release in artificial intestinal juice; assay type: physicochemical; conditions: for release rate compared to the hydrochloride salt: in artificial intestinal juice; for Release in artificial intestinal juice, percent of the substance released: permeable bag, amount calculated on 100 mg free base
Procedure: Investigations on release were carried out in a Sotax AT7 smart release apparatus with UV measurement (Perkin Elmer photometer).
A vessel with Wood apparatus was used (for intrinsic release).
A pressing of 0.5 cm^2 surface area (diameter 8 mm) was produced with a force of 200 N using approximately 100 mg of active ingredient.
Release was carried out in a release medium, which is composed as described below: • Intestinal juice without pancreas powder, pH 6.8 (analogous to Ph. Eur.); 250.0 ml 6.8 g of potassium dihydrogenphosphate R+0.896 g of NaOH+water to 1000.0 ml.
Release was carried out in a release volume of in each case 500±5 ml at a temperature of the release medium of 37±1° C. with a stirring speed of 100±5 rpm.
The content determination was carried out by means of spectroscopic methods (UV spectroscopy, wavelength: 271 nm, cuvette: 10 mm). Sample taking was carried out manually.
In this release experiment, the individual compounds were placed in a permeable bag in an amount in each case calculated on 100 mg of the free base.
The results, expressed in percent of the substance released, are reproduced in the following tables. In this case, the compounds denote: HCl: hydrochloride; A: cinnamate; B: palmitate; C: decanoate; E: hemi-fumarate and F: hemi-sebacate.

[2] = Dynamic vapor sorption (DVS): sorption and desorption of moisture; assay type: physicochemical
Procedure: Investigations on the sorption and desorption of moisture (dynamic vapor sorption, DVS): DVS measurements were carried out on an apparatus of the type DVS 1000 from Porotec. The evaluation of the measurements was carried out using software from Surface Measurement Systems. At a temperature between 23° C. and 26° C., starting from a relative humidity of 50%, within 240 minutes the relative humidity first increased to 90% and then fell to 0%. This cycle was repeated a second time. The DVS charts shown are isothermal recordings (plots) of the change in the mass in % (change in mass—dry) as a function of the desired relative humidity in % (target RH). Correspondingly, the axes of the graphs are marked by ΔM [%] and RH [%]. The measurement curves of the first sorption are designated by 1-S, the subsequent first desorption by 1-D, the second sorption by 2-S and the second desorption by 2-D. Advantageously, mass changes between the sorption and desorption phase are as low as possible.

octanoate
release rate compared to the hydrochloride salt [1]: decreased release rates compared to the hydrochloride salt

CCCCCCCCCC(=O)O.CN(C)CC1CCCCC1(O)c1cccc(O)c1 (stereo not shown) [C-2]
Release in artificial intestinal juice, percent of the substance released ([1]; t 2 min): 92.62%
Release in artificial intestinal juice, percent of the substance released ([1]; t 4 min): 99.12%
Release in artificial intestinal juice, percent of the substance released ([1]; t 6 min): 99.74%
Release in artificial intestinal juice, percent of the substance released ([1]; t 8 min): 99.73%
Release in artificial intestinal juice, percent of the substance released ([1]; t 10 min): 99.55%
Release in artificial intestinal juice, percent of the substance released ([1]; t 12 min): 99.73%
Release in artificial intestinal juice, percent of the substance released ([1]; t 15 min): 99.56%
Release in artificial intestinal juice, percent of the substance released ([1]; t 30 min): 99.77%

palmitate
ΔM Desorption ([2]; 1st cycle, RH 0.0 %): 0.0000%
ΔM Desorption ([2]; 1st cycle, RH 10.0 %): 0.0083%
ΔM Desorption ([2]; 1st cycle, RH 20.0 %): 0.0148%
ΔM Desorption ([2]; 1st cycle, RH 30.0 %): 0.0234%
ΔM Desorption ([2]; 1st cycle, RH 40.0 %): 0.0353%
ΔM Desorption ([2]; 1st cycle, RH 50.0 %): 0.0472%
ΔM Hysteresis ([2]; 1st cycle, RH 50.0 %): 0.0027%
ΔM Sorption ([2]; 1st cycle, RH 50.0 %): 0.0445%
ΔM Desorption ([2]; 1st cycle, RH 60.0 %): 0.0896%
ΔM Hysteresis ([2]; 1st cycle, RH 60.0 %): 0.0374%
ΔM Sorption ([2]; 1st cycle, RH 60.0 %): 0.0522%
ΔM Desorption ([2]; 1st cycle, RH 70.0 %): 0.1139%
ΔM Hysteresis ([2]; 1st cycle, RH 70.0 %): 0.0412%
ΔM Sorption ([2]; 1st cycle, RH 70.0 %): 0.0727%
ΔM Desorption ([2]; 1st cycle, RH 80.0 %): 0.1406%
ΔM Hysteresis ([2]; 1st cycle, RH 80.0 %): 0.0347%
ΔM Sorption ([2]; 1st cycle, RH 80.0 %): 0.1059%
ΔM Desorption ([2]; 1st cycle, RH 90.0 %): 0.1531%
ΔM Sorption ([2]; 1st cycle, RH 90.0 %): 0.1531%
ΔM Desorption ([2]; 2nd cycle, RH 0.0 %): 0.0172%
ΔM Sorption ([2]; 2nd cycle, RH 0.0 %): 0.0000%
ΔM Desorption ([2]; 2nd cycle, RH 10.0 %): 0.0303%
ΔM Hysteresis ([2]; 2nd cycle, RH 10.0 %): 0.0202%
ΔM Sorption ([2]; 2nd cycle, RH 10.0 %): 0.0101%
ΔM Desorption ([2]; 2nd cycle, RH 20.0 %): 0.0421%
ΔM Hysteresis ([2]; 2nd cycle, RH 20.0 %): 0.0211%
ΔM Sorption ([2]; 2nd cycle, RH 20.0 %): 0.0211%
ΔM Desorption ([2]; 2nd cycle, RH 30.0 %): 0.0552%
ΔM Hysteresis ([2]; 2nd cycle, RH 30.0 %): 0.0225%
ΔM Sorption ([2]; 2nd cycle, RH 30.0 %): 0.0326%
ΔM Desorption ([2]; 2nd cycle, RH 40.0 %): 0.0679%
ΔM Hysteresis ([2]; 2nd cycle, RH 40.0 %): 0.0237%
ΔM Sorption ([2]; 2nd cycle, RH 40.0 %): 0.0442%
ΔM Desorption ([2]; 2nd cycle, RH 50.0 %): 0.0837%
ΔM Hysteresis ([2]; 2nd cycle, RH 50.0 %): 0.0234%
ΔM Sorption ([2]; 2nd cycle, RH 50.0 %): 0.0602%
ΔM Desorption ([2]; 2nd cycle, RH 60.0 %): 0.1344%
ΔM Hysteresis ([2]; 2nd cycle, RH 60.0 %): 0.0573%
ΔM Sorption ([2]; 2nd cycle, RH 60.0 %): 0.0771%
ΔM Desorption ([2]; 2nd cycle, RH 70.0 %): 0.1640%
ΔM Hysteresis ([2]; 2nd cycle, RH 70.0 %): 0.0739%
ΔM Sorption ([2]; 2nd cycle, RH 70.0 %): 0.0902%
ΔM Desorption ([2]; 2nd cycle, RH 80.0 %): 0.1827%
ΔM Hysteresis ([2]; 2nd cycle, RH 80.0 %): 0.0495%
ΔM Sorption ([2]; 2nd cycle, RH 80.0 %): 0.1332%
ΔM Desorption ([2]; 2nd cycle, RH 90.0 %): 0.1771%
ΔM Sorption ([2]; 2nd cycle, RH 90.0 %): 0.1771%
ΔM Sorption ([2]; 3rd cycle, RH 0.0 %): 0.0172%
ΔM Sorption ([2]; 3rd cycle, RH 10.0 %): 0.0231%
ΔM Sorption ([2]; 3rd cycle, RH 20.0 %): 0.0306%
ΔM Sorption ([2]; 3rd cycle, RH 30.0 %): 0.0392%
ΔM Sorption ([2]; 3rd cycle, RH 40.0 %): 0.0498%
ΔM Sorption ([2]; 3rd cycle, RH 50.0 %): 0.0650%
release behaviour in artificial intestinal juice ([1]; Experiments B-1 and B-2): more intensely prolonged release
release rate compared to the hydrochloride salt [1]: decreased release rates compared to the hydrochloride salt
